These results are taken from patent US8293756B2, “Pharmaceutical compositions comprising nilotinib hydrochloride monohydrate” (Novartis AG, priority 2006, dated 2012).

Data set [1] in a line: Solubility in aqueous media / water. The data set is classed as physicochemical.
A short description of another data set: Hygroscopic tendency. It is filed as physicochemical.

Structures are written as SMILES. Where a name gives a salt, the structure may show the parent alone.

In the case of `Cc1cn(-c2cc(NC(=O)c3ccc(C)c(Nc4nccc(-c5cccnc5)n4)c3)cc(C(F)(F)F)c2)cn1` [Nilotinib, 4-Methyl-3-[[4-(3-pyridinyl)-2-pyrimidinyl]amino]-N-[5-(4-methyl-1H-imidazol-1-yl) -3-(trifluoromethyl)phenyl] benzamide], the water solubility entry in data set [1] (water, background statement) is “poorly water soluble”.

For `Cc1cn(-c2cc(NC(=O)c3ccc(C)c(Nc4nccc(-c5cccnc5)n4)c3)cc(C(F)(F)F)c2)cn1` [nilotinib hydrochloride monohydrate, 4-Methyl-N-[3-(4-methyl-1H-imidazol-1-yl) -5-(trifluromethyl)phenyl]-3-[(4-pyridine-3-ylpyrimidin-2-yl)amino]benzamide hydrochloride hydrate], the “solubility in aqueous media” value in data set [1] (aqueous media) is “low solubility”. Further, the hygroscopic tendency entry in “Hygroscopic tendency” was “slight hygroscopic tendency”.
